Laboratory results taken from patent US8697659B2, “Analogues of glycolipids useful as immunoadjuvants” (Luigi Panza, priority 2007, dated 2014).

Legend:
Solubility in water = type: physicochemical
Method: In some embodiments, the compounds of the invention have a solubility of at least about 0.5 mg/mL, 1 mg/mL, 2 mg/mL, 5 mg/mL, 7.5 mg/mL, 10 mg/mL, 12.5 mg/mL, 15 mg/mL, 17.5 mg/mL, 20 mg/mL, 25 mg/mL, 30 mg/mL, 40 mg/mL, 50 mg/mL, 75 mg/mL, 100 mg/mL, 150 mg/mL or 200 mg/mL in an aqueous solution.

[1] = system: mouse T cell hybridomas FF13; test: IL-2 secretion by recognition of glycolipids by a murine NKT cell line (FF13 hybridoma, THP1 hCD1d as APC, ELISA); type: cell-based; details: at 10 micromolar; CD1d-transfected THP-1 cells exposed two hours to test compound; IL-2 in medium determined 48 hrs later
Method: As a measure of T cell activation, IL2 release into the culture medium was determined after 48 hours culture by an ELISA assay. […] The x-axis is amount of glycolipid in μg/ml.
The biological evaluation of compounds of the invention uses mouse Vα14i NKT cells immortalized by cell fusion to give hybridomas FF13 through the presentation by APC (THP1). As a measure of T cell activation, IL2 release into the culture medium was determined after 48 hours culture by an ELISA assay. […]
100 μl FF13 in complete medium were added (10×10^4 per well) and after 48 hours the tests were evaluated for IL2 production.
IL2 concentration is evaluated by ELISA using a primary monoclonal Anti-mouse IL-2 Antibody (R&D System), a biotinylated detection anti-mouse IL-2 Antibody (R&D System) and as color developer SIGMA FAST OPD. […]
FIG. 2 depicts the IL2 levels released by cells that had been treated with compounds 13-16, compared to the effect of alpha-GalCer itself, in an NKT cell hybridoma test. The a-GalCer specific NKT hybridoma cells were added to CD1d-transfected THP-1 cells that had been exposed for two hours to various doses of the test compound (about 0.1 to about 10 μg/mL), and IL-2 levels in the medium were determined 48 hrs later.

solubility in water (Solubility in water) | Compound | IL2 levels released, compared to the effect of alpha-GalCer [1]
soluble in water | CCCCCCCCCCCCCCCCCCCCCCCCCC(=O)N[C@@H](CO[C@H]1OC(CO)[C@H](O)C(O)C1O)[C@H](O)[C@H](O)COCCCc1ccccc1 (stereo partly drawn) [Compound 15] | –
– | CCCCCCCCCCCCCCCCCCCCCCCCCC(=O)N[C@@H](COC1OC(CO)C(O)C(O)C1O)[C@H](O)[C@H](O)COCCOCCCC (stereo partly drawn) [Compound 13, (2S,3S,4R)-5-O-(2-butoxyetil)-2-(N-exacosanoylamino)-1-O-(α-D-galactopyranosyl)-1,3,4,5-pentanetetraol] | as effective as a-GalCer
– | CCCCCCCCCCCCCCCCCCCCCCCCCC(=O)N[C@@H](CO[C@H]1OC(CO)[C@H](O)C(O)C1O)[C@H](O)[C@H](O)COCCCc1ccccc1 (stereo partly drawn) [Compound 16] | as effective as a-GalCer
